Reference: article PMC4947679, “Quantitative In Vitro and In Vivo Evaluation of Intestinal and Blood-Brain Barrier Transport Kinetics of the Plant N-Alkylamide Pellitorine” (BioMed Research International, 2016)
Read-outs that look alike come from different tables or passages of the source.

What was measured:
[1] = Capillary depletion experiment in mice; format: in vivo, ICR-CD-1 mice; details: 10 min after intravenous injection; for Kp at 10 min: female, ICR-CD-1, mouse, 36 μg/mouse
Description: A capillary depletion experiment was performed to distinguish the transport of pellitorine into the brain, represented by the parenchyma, and part of pellitorine which is trapped by the endothelial cells of the brain, represented by the capillaries. A method of Triguero et al. was used, which was modified by Gutierrez et al.. The mice were anesthetized intraperitoneally with 40% (w/V) urethane solution (3 g/kg). Thereafter, 20 μL of the 1.8 mg/mL pellitorine dose solution was injected into the jugular vein. Ten min after injection, blood was collected from the abdominal aorta and serum was obtained by centrifuging the blood at 10 000 ×g during 15 min at 21°C. Then, after removing the skin of the mice's chest, the aorta is clamped, the jugular veins are severed, and the brain is immediately perfused manually with 20 mL of Lactated Ringer's solution. The mice are decapitated, and the brains are isolated, weighed, and put into tubes (LoBind Eppendorf), to which 525 μL ice-cold capillary buffer (10 mM HEPES, 141 mM NaCl, 4 mM KCl, 2.8 mM CaCl2, 1 mM MgSO4, 1 mM NaH2PO4, and 10 mM D-glucose adjusted to pH 7.4) was added. The tubes (LoBind Eppendorf) were homogenized. Next, 1000 μL of 26% ice-cold dextran solution in capillary buffer was added and vortexed and the tubes were subsequently centrifuged at 20 000 ×g for 60 min at 4°C. Parenchyma and fat tissue (supernatant) were transferred into separate tubes (LoBind Eppendorf) and weighed. The capillaries (pellet) were kept in the original tube. The sample preparation of the pellet and the supernatant is the same sample preparation method as used for the mice brains and mice serum, respectively, as described in Section 2.6.
The distribution in the brains was calculated as follows: (5) Fraction%=Mtissue/Mcapillaries+Mparenchyma×100 in which M tissue is the amount of pellitorine in the capillaries and parenchyma, M capillaries the amount of pellitorine in the capillaries, and M parenchyma the amount of pellitorine in the parenchyma. The capillary depletion experiment was performed in duplicate and mean values are reported.

Caco-2 cell monolayer = assay: Caco-2 cell permeability assay; format: in vitro ADME, human
Description: (§1) The Caco-2 cell line originated from a human colorectal carcinoma and was maintained in Dulbecco's modified Eagle's medium (DMEM) (95% humidity, 37°C, 5% CO2), supplemented with 10% (V/V) fetal bovine serum, 100 U/mL penicillin and 100 μg/mL streptomycin, 2 mM L-glutamine, and 1% nonessential amino acids (all from Invitrogen/GIBCO, Ghent, Belgium).
(§2) The Caco-2 cell intestinal model was used to investigate the gut mucosa permeation of pellitorine. On each Transwell (Corning Costar, New York, USA) membrane insert filter (0.4 μm pore size, 12 mm filter diameter), the cells were seeded at a density of 2.6 · 10^5 cells/cm^2 cells and cultivated in the described supplemented DMEM. Every second day, the medium was changed. During a period of 21–29 days, the cells were grown and differentiated until monolayers were formed. The integrity of the monolayers was checked via the measurement of transepithelial electrical resistance (TEER) of the monolayers with a Millicell-ERS system (Millipore Corp., Bedford, MA, USA) before and after the transport experiments. The experiments were performed in duplicate for each dose solution. Transport experiments were carried out according to Hubatsch et al. in two directions: from the apical-to-basolateral (ab) direction and from the basolateral-to-apical (ba) direction in Hanks' Balanced Salt solution. Two dose solutions of pellitorine (in Anacyclus pyrethrum extract) of 1 μg/mL in 0.5% EtOH (further indicated as DS1) and of 56 μg/mL in 0.5% of a mixture of vitamin E-TPGS (33.3%), EtOH (11.1%), PEG 400 (33.3%), and PG (22.2%) (further indicated as DS2) dissolved in HBSS were tested.
(§3) Final apical volumes of 0.4 mL and basolateral volumes of 1.2 mL were used for 12 mm filter supports during the transport experiment. After 15, 30, 60, 90, and 120 min, samples were taken from the receiver compartment (basolateral to apical transport: 100 μL, apical-to-basolateral transport: 300 μL) and immediately replaced by fresh HBSS. […] Pellitorine was quantified using a ultraperformance liquid chromatography-tandem mass spectrometry (UPLC-MS^2) method as described below.
(§4) The apparent permeability coefficient (P app in cm/s) of pellitorine in DS2 was calculated using a sink condition equation, while P app of pellitorine in DS1 was calculated using a nonsink equation. From Fick's first law, J = −D × [dC(x)]/dx (J is the flux or transfer rate along the donor-to-receptor side, D is the diffusion coefficient, x is the distance from the donor compartment, and C(x) is the concentration in the barrier at the coordinate x in the barrier), the following differential equation is derived: dM r(t)/dt = P app × A × [C d(t) − C r(t)], in which P app is the apparent permeability coefficient (a product of distribution coefficient with diffusion coefficient divided by the barrier thickness), M r is the amount of substance in the receiver chamber, A is the cross-sectional area of the barrier, C d is the donor concentration, and C r is the receiver concentration. This differential equation can be solved to calculate P app using different initial conditions depending on sink or nonsink conditions. In case of sink conditions, the following equation was obtained from the amount of compound transported per time dM r(t)/dt with the receiver concentration set to zero [18, 20]:(1) Mrt/Cd,0=Papp×A×t+c, where P app is the apparent permeability coefficient (cm/s), A is the surface area of the filter (1.12 cm^2), C d,0 is the initial concentration in the donor chamber (μg/mL), t is the time (s), and c is a constant term which vanishes, since M r is initially zero at t = 0.
(§5) The donor concentration at each time point was calculated by taking into account the amount of compound which already permeated through the cell monolayer during that time interval. In this way, the reduction in donor concentration after every sampling was also taken into account.

[2] = Caco-2 cell permeability assay; format: in vitro ADME, human; details: human, Caco-2
Description: as §1, §2, §3, §4, §5

[3] = apical-to-basolateral, DS1, after 120 min
[4] = apical-to-basolateral, DS2, after 120 min
[5] = basolateral-to-apical, DS1, after 120 min
[6] = basolateral-to-apical, DS2, after 120 min

fraction in brain capillaries ([1]; mean of duplicate): 3% | fraction in brain parenchyma ([1]; mean of duplicate): 97% | Kp at 10 min ([1]; brain capillaries (relative to serum), read-out: brain capillaries, brain/serum ratio): 0.01 | Kp at 10 min ([1]; brain parenchyma (relative to serum), read-out: brain parenchyma, brain/serum ratio): 0.347 | uptake ratio (P app,ab/P app,ba) (Caco-2 cell monolayer; DS1): 0.84 | uptake ratio (P app,ab/P app,ba) (Caco-2 cell monolayer; DS2): 1.96 | amount of pellitorine permeated (Caco-2 cell monolayer; [3]): 0.31 µg | percentage of applied pellitorine permeated (Caco-2 cell monolayer; [3]): 56.7% | amount of pellitorine permeated (Caco-2 cell monolayer; [4]): 2.24 µg | percentage of applied pellitorine permeated (Caco-2 cell monolayer; [4]): 9.98% | amount of pellitorine permeated (Caco-2 cell monolayer; [5]): 0.39 µg | percentage of applied pellitorine permeated (Caco-2 cell monolayer; [5]): 23.7% | amount of pellitorine permeated (Caco-2 cell monolayer; [6]): 1.24 µg | percentage of applied pellitorine permeated (Caco-2 cell monolayer; [6]): 1.84% | ratio of P app values between the apical-to-basolateral and the basolateral-to-apical direction or vice versa (Caco-2 cell monolayer; both dose solutions): ≤ 2 | Papp A→B at 120 min, 1 μg/mL ([2]; DS1: 1 μg/mL pellitorine (in Anacyclus pyrethrum extract) in 0.5% EtOH in HBSS, nonsink equation, mean ± SD, n = 2, read-out: apparent permeability coefficient (P app), apical-to-basolateral transport): 48.08 ± 0.08 ×10⁻⁶ cm/s | Papp B→A at 120 min, 1 μg/mL ([2]; DS1, mean ± SD, n = 2, read-out: apparent permeability coefficient (P app), basolateral-to-apical transport): 57.5 ± 6.2 ×10⁻⁶ cm/s | Papp A→B at 120 min, 56 μg/mL ([2]; DS2: 56 μg/mL pellitorine (in Anacyclus pyrethrum extract) in 0.5% vitamin E-TPGS/EtOH/PEG 400/PG mixture in HBSS, sink equation, mean ± SD, n = 2, read-out: apparent permeability coefficient (P app), apical-to-basolateral transport): 5.5 ± 0.06 ×10⁻⁶ cm/s | Papp B→A at 120 min, 56 μg/mL ([2]; DS2, mean ± SD, n = 2, read-out: apparent permeability coefficient (P app), basolateral-to-apical transport): 2.8 ± 0.09 ×10⁻⁶ cm/s | recovery at 120 min ([2]; after 120 min, read-out: mass balance, total recovery): 104 to 132%
SMILES: CCCCC/C=C/C=C/C(=O)NCC(C)C [pellitorine, deca-2E,4E-dienoic acid isobutylamide]
